Assay results taken from patent publication US20240327383A1 (priority 2021, published 2024).
“And” between values parts separate entries of the source, which are not always exact repeats. Equal entries are not always repeated.

Columns and labels:
[1] = test system: SNI neuropathic pain; set-up: species or system rats; conditions: rat, in vivo
[2] = test system: SNI neuropathic pain; set-up: species or system rats; conditions: rat, in vivo; remark: listed apart in the source

## NCC1(CC(=O)O)CCCCC1 [Gabapentin]
[1]
  mean relative analgesic rate of foot weight bearing: 20.85% and 17.55% and 14.07%
[2]
  mean relative analgesic rate of Von Frey Hairs: 29.71% and 36.26%
